Source: patent publication US20060194835A1, “Compositions and methods for treating or preventing flaviviridae infections” (priority 2005, published 2006)

Experiments:
[1] = system: BVDV; assay: Protection of MDBK cells from BVDV-induced cytopathicity (CPE reduction, MTS/PMS); type: cell-based, bovine viral diarrhea virus; details: for EC50: 50% CPE reduction; for protection of MDBK cells from BVDV-induced cytopathicity (in words): at the concentrations tested
[2] = in vitro; details: bovine
[3] = Drug cytotoxicity in uninfected MDBK cells (MTS/PMS); details: bovine
[4] = system: BVDV; assay: Double combination checkerboard CPE assay, MacSynergy II and isobolograms; type: cell-based, bovine viral diarrhea virus; details: at 10 IU/mL interferon-α2b
Description: A double combination assay was performed using MDBK cells infected with BVDV in an inhibition of cytopathic effect (CPE) assay as described in Example 2. The double drug combinations were measured by creating a “checkerboard” of drug concentrations used on cell monolayers in microtiter plates, with one drug being titrated horizontally and the other drug titrated vertically, and each double combination being tested at least twice.
The EC50 values of a first test compound derived while in combination with a second test compound were plotted against the corresponding concentration of the second test compound to create an isobole (dose pair). All of the isoboles were plotted in an isobologram to determine the presence of synergy, antagonism or additivity for the combined test compounds. […] The line connecting the monotherapy EC50 values represents the theoretical additivity effect values for the two compounds.
In addition to generating isobolograms, the checkerboard data was imported into MacSynergy™ II software to graph the observed synergy (or additive or antagonism) volumes for the double combinations tested. Briefly, the calculated additive interactions were subtracted from the experimentally determined values to reveal the corresponding drug concentrations at which a synergistic (indicated by positive % values) or antagonistic (indicated by negative % values) effect is observed. The greater the positive percent volume observed, the greater the synergy between the two compounds. […] In contrast, any value about or less than −25 μM^2% or μM(IU/mL) % is indicative of a significant antagonistic effect. The data presented in Table 5 represent volumes of synergy or antagonism with 95% confidence. The confidence level was calculated using a Bonferroni adjustment as a conservative estimate of significance to statistically evaluate the data.

[5] = system: BVDV; assay: Triple combination checkerboard CPE assay (celgosivir or castanospermine + interferon-α2b + ribavirin), MacSynergy II; type: cell-based, bovine viral diarrhea virus; details: for EC50: read-out: Average Castanospermine EC50
Description: Each double or triple combination was performed twice. The combination efficacy data were analyzed using the MacSynergy™ II software program as described herein.
Each double or triple combination was performed twice. The combination efficacy data were analyzed using the MacSynergy™ II software program as described herein. The EC50 for each of celgosivir and castanospermine was calculated from the triple combination studies described in Example 6.
Each double or triple combination was performed twice. The combination efficacy data were analyzed using the MacSynergy™ software program as described herein. The EC50 for interferon-α2b was calculated from the triple combination studies described in Example 6.

[6] = system: MDBK cells; assay: Drug cytotoxicity in uninfected MDBK cells (MTS/PMS); details: uninfected MDBK cells
[7] = system: BVDV strain NADL; assay: Inhibition of viral release from BVDV-infected MDBK cells (plaque titer); details: MOI = 1; for EC50: inhibits 50% of viral release; for EC50 / EC90: 24 hours; for EC90: inhibits 90% of viral release
[8] = system: MDBK cells; assay: Cytotoxicity of test compound in MDBK cells in the absence of viral infection (Example 1); details: absence of viral infection
[9] = Bovine viral diarrhea virus isolates and strains, MDBK, MOI 0.05

## O=C(N[C@@H](Cc1c[nH]c2ccccc12)C(=O)O)c1ccc2ccn(Cc3ccccc3)c2c1 [2-BAIP, (L)-2-[(1-Benzyl-1H-indole-6-carbonyl)-amino]-3-(1H-indol-3-yl)-propionic acid, reference compound]
[1]; [9]
  EC50: > 50 µM
[1]
  protection of MDBK cells from BVDV-induced cytopathicity (in words): do not protect
[2]
  CC50: > 50 µM

## NC12CC3CC(CC(C3)C1)C2 [Amantadine, amantadine, reference compound]
[1]; MOI 0.05
  EC50: 357 µM
[1]; [9]
  EC50: 476 µM
[3]
  CC50: > 1000 µM

## O[C@H]1[C@H](O)[C@@H](O)CN2CC[C@H](O)[C@H]12 [Castanospermine, [1S-(1α,6β,7α,8β,8aβ)]-octahydro-1,6,7,8-indolizinetetrol]
[1]; MOI 0.01, read-out: EC50
  EC50: 62 ± 15 µM
[4]
  fold reduction of EC50 of castanospermine: more than 7 fold
[5]; Ribavirin 0 μM, Interferon-α2b 0 IU/mL, listed as castanospermine
  EC50: ~52 µM
[5]; Ribavirin 0 μM, Interferon-α2b 0 IU/mL
  EC50: 52.2 ± 9.5 µM
[5]; Ribavirin 0 μM, Interferon-α2b 0.7 IU/mL
  EC50: 39 ± 13.4 µM
[5]; Ribavirin 0 μM, Interferon-α2b 2.2 IU/mL
  EC50: 18.9 ± 2.1 µM
[5]; Ribavirin 0 μM, Interferon-α2b 6.7 IU/mL
  EC50: 11.9 ± 2.5 µM
[5]; Ribavirin 0 μM, Interferon-α2b 20 IU/mL
  EC50: < 1.3 µM
[5]; Ribavirin 0.12 μM, Interferon-α2b 0.7 IU/mL
  EC50: 34.3 ± 3.4 µM
[5]; Ribavirin 0.12 μM, Interferon-α2b 2.2 IU/mL
  EC50: 23.4 ± 2.4 µM
[5]; Ribavirin 0.12 μM, Interferon-α2b 6.7 IU/mL
  EC50: 9.7 ± 4.8 µM
[5]; Ribavirin 0.12 μM, Interferon-α2b 20 IU/mL
  EC50: < 1.4 µM
[5]; Ribavirin 0.37 μM, Interferon-α2b 0.7 IU/mL
  EC50: 27.7 ± 6.3 µM
[5]; Ribavirin 0.37 μM, Interferon-α2b 2.2 IU/mL
  EC50: 19.7 ± 5.2 µM
[5]; Ribavirin 0.37 μM, Interferon-α2b 6.7 IU/mL
  EC50: 6.5 ± 7.5 µM
[5]; Ribavirin 0.37 μM, Interferon-α2b 20 IU/mL
  EC50: < 1.5 µM
[5]; Ribavirin 1.1 μM, Interferon-α2b 0.7 IU/mL
  EC50: 14 ± 4.5 µM
[5]; Ribavirin 1.1 μM, Interferon-α2b 2.2 IU/mL
  EC50: 6.9 ± 1 µM
[5]; Ribavirin 1.1 μM, Interferon-α2b 6.7 IU/mL
  EC50: < 1.2 µM
[5]; Ribavirin 1.1 μM, Interferon-α2b 20 IU/mL
  EC50: < 1.2 µM
[5]; Ribavirin 3.3 μM, Interferon-α2b 0.7 IU/mL
  EC50: < 1.2 µM
[5]; Ribavirin 3.3 μM, Interferon-α2b 2.2 IU/mL
  EC50: < 1.2 µM
[5]; Ribavirin 3.3 μM, Interferon-α2b 6.7 IU/mL
  EC50: < 1.2 µM
[5]; Ribavirin 3.3 μM, Interferon-α2b 20 IU/mL
  EC50: < 1.2 µM
[5]; upon the addition of increasing concentrations of interferon-α2b
  dose-dependent reduction in EC50: up to 52 fold
[6]
  CC50: > 1000 µM
[7]
  TI (Therapeutic Index, CC50/EC50): >100
  EC50: 19.4 ± 8.3 µM
  EC90: 89 ± 21 µM
[8]
  CC50: > 2000 µM

## CCCCN1C[C@H](O)[C@@H](O)[C@H](O)[C@H]1CO [NB-DNJ, N-butyldeoxynojirimycin, reference compound]
[1]; MOI 0.05, read-out: EC50
  EC50: 459 µM
[6]
  CC50: > 500 µM

## C[C@@]1(O)[C@H](O)[C@@H](CO)O[C@H]1n1ccc(N)nc1=O [NM-107, 2′-C-methyl cytidine, reference compound]
[1]; Bovine viral diarrhea virus isolates and strains, MDBK, MOI 0.01
  EC50: 2.1 ± 0.5 µM
[2]
  CC50: 228 µM

## Interferon-α2b
[1]; MOI 0.01
  EC50: 19.4 ± 6 IU/mL
[5]; Castanospermine added 0 μM
  Average Interferon-α2b EC50: 16 IU/mL
[5]; Castanospermine added 1.2 μM
  Average Interferon-α2b EC50: 18 IU/mL
[5]; Castanospermine added 3.7 μM
  Average Interferon-α2b EC50: 13 IU/mL
[5]; Castanospermine added 11 μM
  Average Interferon-α2b EC50: 7 IU/mL
[5]; Castanospermine added 33 μM
  Average Interferon-α2b EC50: 1 IU/mL
[5]; Celgosivir added 0 μM
  Average Interferon-α2b EC50: 19 IU/mL
[5]; Celgosivir added 0.25 μM
  Average Interferon-α2b EC50: 21 IU/mL
[5]; Celgosivir added 0.74 μM
  Average Interferon-α2b EC50: 14 IU/mL
[5]; Celgosivir added 2.2 μM
  Average Interferon-α2b EC50: 5 IU/mL
[5]; Celgosivir added 6.7 μM
  Average Interferon-α2b EC50: <1 IU/mL
[5]; at increased concentration of castanospermine or celgosivir
  EC50 of interferon-α2b: less than 1 IU/mL
[5]; without added castanospermine or celgosivir
  EC50 of interferon-α2b: about 20 IU/mL
[6]
  CC50: >300 IU/mL
[7]
  TI (Therapeutic Index, CC50/EC50): >200
  EC50: 8.0 ± 6.8 IU/mL
  EC90: 114 ± 92 IU/mL
[8]
  CC50: >1000 IU/mL

## Interferon-ω: type I interferon, interferon-ω (Cedarlane Laboratories)
[1]; MOI 0.01
  EC50: 37 ± 1.4 IU/mL
[6]
  CC50: >1000 IU/mL

## Peginterferon-α2a
[1]; MOI 0.01
  EC50: 16.6 ± 11 IU/mL
[6]
  CC50: >1000 IU/mL

B1: Interferon-γ: type II interferon (protein, UniProt P01579 24-161, looked up)
Interferon gamma: QDPYVKEAENLKKYFNAGHSDVADNGTLFLGILKNWKEESDRKIMQSQIVSFYFKLFKNFKDDQSIQKSVETIKEDMNVKFFNSNKKKRDDFEKLTNYSVTDLNVQRKAIHELIQVMAELSPAAKTGKRKRSQMLFRG
[1]; MOI 0.01
  EC50: >1000 IU/mL
[1]
  protection of MDBK cells from BVDV-induced cytopathicity (in words): do not protect
[6]
  CC50: >1000 IU/mL
